One assay relates to Mythimna separata. Also noted: method as in Younas et al., 2022. The settings on record: ref Younas et al., 2022; cited from earlier work.
The target in assay [1] is T1, recombinant AplaCSP4 (Agrilus planipennis chemosensory protein 4) (Agrilus planipennis, UniProt A0A1W4XLL0). The experiment in a line: biochemical. The settings on record: for Competitive binding capability(%) / activity at 2 µM / activity at 4 µM / activity at 6 µM / activity at 8 µM / activity at 10 µM / activity at 12 µM: three replicate columns, 100 at 0 μM. In kind it is binding. As to the method: Specifically, the binding affinities of AplaCSP4 for 43 volatile organic compounds were determined using F-380 fluorescence spectrophotometer (Tianjin, China) with a 10 nm slits and a 1 cm light path. These 43 substances are common green leaf volatiles, among which 16 volatiles originate from the ash tree. […]

Assay [2] concerns the target T1, recombinant AplaCSP4 (Agrilus planipennis chemosensory protein 4). The experiment in a line: Binding of fluorescent probe 1-NPN to AplaCSP4 (titration). The settings on record: 2 µM protein in 50 mM Tris–HCl pH 7.4 titrated with 1-NPN 2-16 µM; read-out: binding affinity constant (KD) between 1-NPN and AplaCSP4. As to the method:
Fluorescence competitive binding assays were conducted according to the method described by [Wang et al. (2021)]. Specifically, the binding affinities of AplaCSP4 for 43 volatile organic compounds were determined using F-380 fluorescence spectrophotometer (Tianjin, China) with a 10 nm slits and a 1 cm light path. These 43 substances are common green leaf volatiles, among which 16 volatiles originate from the ash tree. As the fluorescent probe, N-phenyl-1-naphthylamine (1-NPN) was excited at the wavelength of 337 nm, and emission spectra were recorded between 390 and 530 nm. […]

The test system of a further assay is Cnaphalocrocis medinalis. Also noted: method as in Cáceres et al., 2016; Sun et al., 2016. The settings on record: ref Cáceres et al., 2016, Sun et al.; cited from earlier work.
A further assay concerns Phyllotreta cruciferae. Also noted: method as in Cáceres et al., 2016; Sun et al., 2016. The settings on record: ref Cáceres et al., 2016, Sun et al.; cited from earlier work.
Setting [3] is: ligand concentration 2 μM, 2 µM.
Setting [4] is: ligand concentration 4 μM, 4 µM.
The mark [5] stands for this setting: ligand concentration 6 μM, 6 µM.
[6] abbreviates: ligand concentration 8 μM, 8 µM.
Where [7] appears, read: ligand concentration 10 μM, 10 µM.
[8] abbreviates: ligand concentration 12 μM, 12 µM.
Setting [9] is: AplaCSP4 and 1-NPN each 2 µM, ligands with minimal binding single experiment, read-out: K D ±SE, “–” = no binding (IC50 >16 μM, KD not calculated).

The values below come from article PMC12369603, “Functional characterization of antennae-enriched chemosensory protein 4 in emerald ash borer, Agrilus planipennis” (PeerJ, 2025).

For orientation: IC50 means the concentration that gives 50% inhibition.

“And” between values parts separate entries of the source, which are not always exact repeats. Equal entries are not always repeated. Where two headings read alike, the source gives them in different places.

T1 sequence (A0A1W4XLL0 entry or part of it): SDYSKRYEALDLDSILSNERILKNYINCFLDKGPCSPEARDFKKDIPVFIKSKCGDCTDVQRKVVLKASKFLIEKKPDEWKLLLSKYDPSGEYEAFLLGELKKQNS

In the case of `C=CC(C)(O)CCC=C(C)CCC=C(C)C` (mixture of isomers) [Nerolidol], the attractive activity entry in the assay with Mythimna separata is listed as “attractive activity”. For the same compound, the “binding to AplaCSP4 (in words)” value in assay [1] (discussion of fluorescence competitive binding results) is “particularly high binding affinity”. The “Competitive binding capability(%)” value in assay [1] (setting [3]) was 51.463% and 50.752%; in assay [1] (setting [4]) it was 34.5446% and 32.1031%; in assay [1] (setting [5]) it was 25.4151% and 25.0577%; in assay [1] (setting [6]), 20.9595% and 20.5391%; in assay [1] (setting [7]), 17.6278% and 17.3179%; in assay [1] (setting [8]) it was 15.4258% and 15.6099%. Moreover, in assay [1] (pH 7.4, ligand concentration 2 μM, read-out: Competitive binding capability(%)), the activity at 2 µM was 49.2%. For the same compound, the activity at 4 µM in assay [1] (pH 7.4, ligand concentration 4 μM, read-out: Competitive binding capability(%)) stood at 35.3%. The activity at 6 µM in assay [1] (pH 7.4, ligand concentration 6 μM, read-out: Competitive binding capability(%)) is 25.6%. Further, in assay [1] (pH 7.4, ligand concentration 8 μM, read-out: Competitive binding capability(%)), the activity at 8 µM was found to be 21.1%. Besides, the activity at 10 µM in assay [1] (pH 7.4, ligand concentration 10 μM, read-out: Competitive binding capability(%)) was 17.9%. Besides, the activity at 12 µM in assay [1] (pH 7.4, ligand concentration 12 μM, read-out: Competitive binding capability(%)) was 16.1%. Moreover, the Kd in assay [1] (read-out: K D ±SE (dissociation constant)) was 1.38 ± 0.03 µM.

Take `c1ccc(Nc2cccc3ccccc23)cc1` [1-NPN, N-phenyl-1-naphthylamine]: the Kd in assay [2] came to 9.36 µM.

Consider `CCCC/C=C/C=O` [trans-2-Heptenal], for which the half-inhibitory concentration (IC50) in assay [1] (setting [9]) is more than 16 µM.

`CCC/C=C/C=O` [trans-2-Hexenal]: in assay [1], the IC50 was more than 16 µM.

`CCC/C=C/COC(C)=O` [trans-2-Hexenyl acetate]: the IC50 in assay [1] (setting [9]) is more than 16 µM.

As to `C=C1CC/C=C(\C)CC[C@@H]2[C@@H]1CC2(C)C` [β-Caryophyllene], the half-maximal inhibitory concentration (IC50) in assay [1] was more than 16 µM.

For `CC(=O)/C=C/C1=C(C)CCCC1(C)C` [β-Ionone], the Kd in assay [1] worked out at 4.23 ± 0.07 µM. Moreover, the “Competitive binding capability(%)” value in assay [1] (setting [3]) is 74.4951% and 75.2037%; in assay [1] (setting [4]), 60.2358% and 60.8061%; in assay [1] (setting [5]) it was 50.2199% and 51.0303%; in assay [1] (setting [6]), 42.8154% and 43.7153%; in assay [1] (setting [7]) it was 37.3498% and 38.224%; in assay [1] (setting [8]) it was 33.5198% and 33.2165%. Moreover, the activity at 2 µM in assay [1] (pH 7.4, read-out: Competitive binding capability(%), ligand concentration 2 μM) turned out to be 75.8%. For the same compound, in assay [1] (pH 7.4, read-out: Competitive binding capability(%), ligand concentration 4 μM), the activity at 4 µM came out at 61.2%. The activity at 6 µM in assay [1] (pH 7.4, read-out: Competitive binding capability(%), ligand concentration 6 μM) came out at 51.9%. In addition, the activity at 8 µM in assay [1] (pH 7.4, read-out: Competitive binding capability(%), ligand concentration 8 μM) worked out at 45%. The activity at 10 µM in assay [1] (pH 7.4, read-out: Competitive binding capability(%), ligand concentration 10 μM) worked out at 38.5%. Further, the activity at 12 µM in assay [1] (pH 7.4, read-out: Competitive binding capability(%), ligand concentration 12 μM) came to 34.6%. The repellent activity result in the assay on Cnaphalocrocis medinalis and with Phyllotreta cruciferae was “repellent activity” throughout.

Turning to (±)-Citronellal, the IC50 in assay [1] (setting [9]) is more than 16 µM.
